In PMC9181899, “Synthesis and Anticancer Properties of New 3-Methylidene-1-sulfonyl-2,3-dihydroquinolin-4(1H)-ones” (Molecules, 2022):
Like-named read-outs stand apart in the source and are kept apart here.

Key:
MCF-7 cells = test: MTT in vitro cytotoxicity assay, MCF-7; type: cell-based; conditions: mean ± SEM
Procedure: (§1) The promyelocytic leukemia HL-60 and breast cancer adenocarcinoma MCF-7 cell lines were purchased from the European Collection of Cell Cultures (ECACC). Leukemia cells were cultured in RPMI 1640 plus GlutaMax I medium (Gibco/Life Technologies, Carlsbad, CA, USA). MCF-7 cells were maintained in Minimum Essential Medium Eagle (Sigma Aldrich, St. Louis, MO, USA) and supplemented with 2 mM glutamine and men non-essential amino acid solution (Sigma Aldrich, St. Louis, MO, USA). Both media were supplemented with 10% heat-inactivated fetal bovine serum (Biological Industries, Beit-Haemek, Israel) and antibiotics (100 U/mL penicillin and 100 μg/mL streptomycin) (Sigma-Aldrich, St. Louis, MO, USA). Human umbilical vein endothelial cells (HUVECs) were purchased from the American Type Culture Collection (ATCC). Cells were cultured using EGM-2 Endothelial Medium BulletKit purchased from Lonza (Lonza, Walkersville, MD, USA). Cells were maintained at 37 °C in 5% CO2 atmosphere and grown until 80% confluent.
(§2) The tested compounds were dissolved in sterile dimethyl sulfoxide (DMSO) and further diluted with culture medium. The final concentration of DMSO in cell cultures was less than 0.1% v/v. Controls without and with 0.1% DMSO were performed in each experiment. At the used concentration, DMSO had no effect on the observed parameters.
(§3) The MTT (3-(4,5-dimethylthiazol-2-yl)-2,5-diphenyltetrazolium bromide) assay, which measures the activity of cellular dehydrogenases, was performed according to the Mosmann method. Exponentially growing cells were seeded into 24-well plates at a density of 8 × 10^4 cells/mL and left to grow for 24 h. After 24 h or 48 h of incubation with various concentrations of the tested compounds (dissolved in DMSO and diluted with complete culture medium), cells were incubated with 0.1 mL of MTT solution (5 mg/mL in phosphate buffered saline) for 1.5 h. The metabolically active cells reduced MTT to blue formazan crystals. The plates were centrifuged, and the supernatant was discarded. DMSO (1 mL) was added to each well to dissolve the crystals, whose absorbance was measured at 560 nm using FlexStation 3 Multi-Mode Microplate Reader (Molecular Devices, LLC, San Jose, CA, USA). The untreated cells were used as control. The IC50 values were calculated from the concentration–response curves. The data were expressed as mean ± SEM of three independent experiments.

HL-60 cells [1] = test: MTT in vitro cytotoxicity assay, HL-60; type: cell-based; conditions: 48 h incubation, mean ± SEM, read-out: IC50 HL-60
Procedure: as §1, §2, §3

HUVEC cells = test: MTT in vitro cytotoxicity assay, HUVEC (normal cells); type: cell-based, human; conditions: 48 h incubation, mean ± SEM
Procedure: as §1, §2, §3

HL-60 cells [2] = test: Apoptosis by cleaved PARP (Asp214) staining, flow cytometry; type: cell-based; conditions: 24 h, control 1.4%
Procedure: To evaluate the anticancer potential of 5a, the ability of this compound to inhibit cell proliferation, induce apoptotic cell death, and generate DNA damage was examined by flow cytometry using the ‘Apoptosis, DNA Damage, and Cell Proliferation Kit’ (BD Bioscience). After 24 h treatment with 5a in increasing concentrations, HL-60 cells were exposed to bromodeoxyuridine (BrdU) for additional 8 h. Then, the cells were simultaneously stained with fluorochrome-labeled anti-BrdU, anti-cleaved PARP (Asp214) and anti-H2AX (pS139).
To check whether the cytotoxic effect of 5a was associated with the induction of apoptosis, the pro-apoptotic activity of this compound was investigated. Apoptosis regulation is triggered by the activation of caspases. Caspase-3, an effector caspase, cleaves a number of vital proteins, leading to cell death. The activity of caspase-3 was assessed by flow cytometry using fluorochrome-labeled antibodies recognizing 89 kDa-cleaved PARP fragments released from PARP by caspase-3 in the executive stage of apoptosis.
Cell proliferation, DNA damage, and apoptotic cell death were determined using Apoptosis, DNA Damage, and Cell Proliferation Kit (BD Bioscience, San Jose, CA, USA), according to the manufacturer protocol. Briefly, HL-60 cells were seeded in 6-well plates (4.0 × 10^5 cells/mL) in 2 mL of growth medium and treated with 5a for 24 h. Afterwards, the bromodeoxyuridine (BrdU, 10 µM) was added and the cells were incubated for additional 8 h. Next, the cells were collected by centrifugation (300× g, 5 min), counted, fixed, and permeabilized according to the manufacturer’s instructions. The cells were incubated with DNase (300 µg/mL in PBS) for 1 h at 37 °C and then simultaneously stained with fluorochrome-labeled anti-BrdU, H2AX (pS139), and cleaved PARP (Asp214) antibodies, for 20 min at room temperature. After washing, DNA staining with DAPI (1 µg/mL of the staining buffer) was performed, and the cells were analyzed by flow cytometry using CytoFLEX (Beckman Coulter, Inc., Brea, CA, USA).

[3] = Homo sapiens, MCF7, 48 h incubation

| SMILES | IC50 (MCF-7 cells; [3]) [nM] | IC50 (HL-60 cells [1]; Homo sapiens, HL-60, 48 h) [nM] | melting point [°C] | IC50 (HUVEC cells; Homo sapiens, HUVEC) [nM] | IC50 (HL-60 cells [1]) [nM] | apoptotic cells (cleaved PARP positive) population (HL-60 cells [2]; 1.35 µM) [%] | apoptotic cells (cleaved PARP positive) population (HL-60 cells [2]; 1.8 µM) [%] | IC50 (MCF-7 cells; 48 h incubation) [nM] | IC50 (HUVEC cells) [nM] |
| --- | --- | --- | --- | --- | --- | --- | --- | --- | --- |
| C=C1C(=O)c2cc(Cl)ccc2N(S(=O)(=O)c2ccc(C)cc2)C1c1ccccc1 (stereo not shown) [Compound 5o, 6-Chloro-3-methylidene-2-phenyl-1-tosyl-2,3-dihydroquinolin-4(1H)-one] | 3670 ± 410 | 2040 ± 50 | 162 | – | – | – | – | – | – |
| C=C1C(=O)c2cc(Br)ccc2N(S(=O)(=O)c2ccc(C)cc2)C1c1ccc(OC)cc1 (stereo not shown) [Compound 5t, 6-Bromo-2-(4-methoxyphenyl)-3-methylidene-1-tosyl-2,3-dihydroquinolin-4(1H)-one] | 2810 ± 50 | 740 ± 60 | 168 | – | – | – | – | – | – |
| C=C1C(=O)c2ccccc2N(S(=O)(=O)c2ccc(Cl)cc2)C1CC (stereo not shown) [Compound 5e, 1-((4-Chlorophenyl)sulfonyl)-2-ethyl-3-methylidene-2,3-dihydroquinolin-4(1H)-one] | 1610 ± 70 | 370 ± 50 | 118 | 750 | – | – | – | – | – |
| C=C1C(=O)c2ccccc2N(S(=O)(=O)c2ccccc2)C1C(C)C (stereo not shown) [Compound 5b, 3-Methylidene-1-(phenylsulfonyl)-2-(propan-2-yl)-2,3-dihydroquinolin-4(1H)-one] | 830 ± 20 | < 300 | 86 | 780 ± 210 | 290 ± 20 | – | – | – | – |
| C=C1C(=O)c2cc(Cl)ccc2N(S(=O)(=O)c2ccc(C)cc2)C1C(C)C (stereo not shown) [Compound 5n, 6-Chloro-3-methylidene-2-(propan-2-yl)-1-tosyl-2,3-dihydroquinolin-4(1H)-one] | 1650 ± 50 | 670 ± 10 | 130 | 680 ± 30 | – | – | – | – | – |
| C=C1C(=O)c2cc(Br)ccc2N(S(=O)(=O)c2ccc(C)cc2)C1C(C)C (stereo not shown) [Compound 5r, 6-Bromo-3-methylidene-2-(propan-2-yl)-1-tosyl-2,3-dihydroquinolin-4(1H)-one] | 830 ± 20 | < 300 | 118 | 470 ± 30 | 190 ± 30 | – | – | – | – |
| C=C1C(=O)c2ccccc2N(S(=O)(=O)c2ccc(Cl)cc2)C1C(C)C (stereo not shown) [Compound 5f, 1-((4-Chlorophenyl)sulfonyl)-3-methylidene-2-(propan-2-yl)-2,3-dihydroquinolin-4(1H)-one] | 860 ± 20 | < 300 | 126 | 990 ± 70 | 230 ± 10 | – | – | – | – |
| C=C1C(=O)c2cc(Br)ccc2N(S(=O)(=O)c2ccc(C)cc2)C1c1ccccc1 (stereo not shown) [Compound 5s, 6-Bromo-3-methylidene-2-phenyl-1-tosyl-2,3-dihydroquinolin-4(1H)-one] | 2670 ± 50 | 620 ± 10 | 162 | – | – | – | – | – | – |
| CCOP(=O)(OCC)C1=C(O)c2ccccc2N(S(=O)(=O)c2ccccc2)C1CC (stereo not shown) [Compound 10a] | – | – | – | – | – | 20.6 | 26.4 | – | – |
| C=C1C(=O)c2ccccc2N(S(=O)(=O)c2ccc(Cl)cc2)C1c1ccc(OC)cc1 (stereo not shown) [Compound 5h, 1-((4-Chlorophenyl)sulfonyl)-2-(4-methoxyphenyl)-3-methylidene-2,3-dihydroquinolin-4(1H)-one] | 2100 ± 160 | 920 ± 10 | 140 | – | – | – | – | – | – |
| C=C1C(=O)c2ccccc2N(S(=O)(=O)c2ccc(Cl)cc2)C1c1ccccc1 (stereo not shown) [Compound 5g] | 1890 ± 30 | 780 ± 70 | 178 | – | – | – | – | – | – |
| C=C1C(=O)c2cc(OC)c(OC)cc2N(S(=O)(=O)c2ccc(C)cc2)C1C(C)C (stereo not shown) [Compound 5j, 6,7-Dimethoxy-3-methylidene-2-(propan-2-yl)-1-tosyl-2,3-dihydroquinolin-4(1H)-one] | 1440 ± 70 | 430 ± 20 | 150 | 990 ± 70 | – | – | – | – | – |
| C=C1C(=O)c2ccccc2N(S(=O)(=O)c2ccccc2)C1c1ccccc1 (stereo not shown) [Compound 5c, 3-Methylidene-2-phenyl-1-(phenylsulfonyl)-2,3-dihydroquinolin-4(1H)-one] | 2250 ± 200 | 1360 ± 130 | 150 | – | – | – | – | – | – |
| C=C1C(=O)c2cc(OC)c(OC)cc2N(S(=O)(=O)c2ccc(C)cc2)C1CC (stereo not shown) [Compound 5i, 2-Ethyl-6,7-dimethoxy-3-methylidene-1-tosyl-2,3-dihydroquinolin-4(1H)-one] | 1010 ± 50 | 370 ± 20 | 168 | 420 ± 80 | – | – | – | – | – |
| N.N.O=C([O-])C1(C(=O)[O-])CCC1.[Pt+2] [Carboplatin, reference compound] | – | – | – | – | 3800 ± 450 | – | – | 2900 ± 100 | 5350 ± 50 |
| C=C1C(=O)c2ccccc2N(S(=O)(=O)c2ccccc2)C1c1ccc(OC)cc1 (stereo not shown) [Compound 5d, 2-(4-Methoxyphenyl)-3-methylidene-1-(phenylsulfonyl)-2,3-dihydroquinolin-4(1H)-one] | 1210 ± 240 | 1120 ± 370 | 152 | – | – | – | – | – | – |
| C=C1C(=O)c2cc(Br)ccc2N(S(=O)(=O)c2ccc(C)cc2)C1CC (stereo not shown) [Compound 5q, 6. -Bromo-2-ethyl-3-methylidene-1-tosyl-2,3-dihydroquinolin-4(1H)-one] | 1830 ± 150 | 610 ± 40 | 132 | 1000 ± 220 | – | – | – | – | – |
| C=C1C(=O)c2cc(Cl)ccc2N(S(=O)(=O)c2ccc(C)cc2)C1c1ccc(OC)cc1 (stereo not shown) [Compound 5p, 6-Chloro-2-(4-methoxyphenyl)-3-methylidene-1-tosyl-2,3-dihydroquinolin-4(1H)-one] | 3600 ± 190 | 2070 ± 20 | 150 | – | – | – | – | – | – |
| C=C1C(=O)c2cc(Cl)ccc2N(S(=O)(=O)c2ccc(C)cc2)C1CC (stereo not shown) [Compound 5m, 6-Chloro-2-ethyl-3-methylidene-1-tosyl-2,3-dihydroquinolin-4(1H)-one] | 3480 ± 420 | 1750 ± 30 | 126 | – | – | – | – | – | – |
| C=C1C(=O)c2cc(OC)c(OC)cc2N(S(=O)(=O)c2ccc(C)cc2)C1c1ccc(OC)cc1 (stereo not shown) [Compound 5l, 6,7-Dimethoxy-2-(4-methoxyphenyl)-3-methylidene-1-tosyl-2,3-dihydroquinolin-4(1H)-one] | 1150 ± 40 | 1480 ± 60 | 196 | – | – | – | – | – | – |
| C=C1C(=O)c2cc(OC)c(OC)cc2N(S(=O)(=O)c2ccc(C)cc2)C1c1ccccc1 (stereo not shown) [Compound 5k, 6,7-Dimethoxy-3-methylidene-2-phenyl-1-tosyl-2,3-dihydroquinolin-4(1H)-one] | 1460 ± 90 | 580 ± 20 | 196 | – | – | – | – | – | – |
